Measured values from US9422240B2, “Partially saturated nitrogen-containing heterocyclic compound” (TAISHO PHARMACEUTICAL CO., LTD, priority 2012, dated 2016).
Where a name gives a salt, the structure may show the parent alone.

Experiments:
human PHD2 [1] = target: T1, human PHD2 (Homo sapiens (Human), UniProt Q9GZT9); assay: Test 2: human PHD2 inhibitory activity, fluorescence polarization assay of HIF-1α peptide proline hydroxylation; assay type: biochemical; conditions: read-out: Percent inhibition (% at 1 μM)
T1 sequence (Q9GZT9 whole entry): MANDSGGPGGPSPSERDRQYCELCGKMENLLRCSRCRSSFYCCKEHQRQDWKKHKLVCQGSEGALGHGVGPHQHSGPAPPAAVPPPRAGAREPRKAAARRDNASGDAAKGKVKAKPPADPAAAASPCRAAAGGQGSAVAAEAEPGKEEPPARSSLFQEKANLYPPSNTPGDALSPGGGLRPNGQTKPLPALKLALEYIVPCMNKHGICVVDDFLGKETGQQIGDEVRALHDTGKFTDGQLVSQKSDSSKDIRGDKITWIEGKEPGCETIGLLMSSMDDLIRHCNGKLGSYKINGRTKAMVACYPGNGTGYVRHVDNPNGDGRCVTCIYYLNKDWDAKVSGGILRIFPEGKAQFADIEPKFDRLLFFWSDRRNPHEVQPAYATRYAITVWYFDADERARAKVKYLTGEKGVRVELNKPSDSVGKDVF
Outline: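 A 19-mer HIF-1α peptide served as substrate, with the reaction started by 40 ng/well human PHD2 (cell lysate of NM_022051-transfected cells) and run 20 min at 30° C. before EDTA stop. Hydroxylated product bound anti-HIF-OH antibody, read by fluorescence polarization versus no-compound control.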

human PHD2 [2] = target: T1, human PHD2; assay: Test 1: human PHD2 inhibitory activity, [14C]-2-oxoglutarate to [14C]-succinic acid radiometric assay with HIF-1α peptide; assay type: biochemical; conditions: read-out: Percent inhibition (% at 1 μM)
Outline: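 Activity was measured by radiometric counting of [14C]-succinic acid formed during prolyl hydroxylation of a 19-mer HIF-1α peptide, after DNPH removal of residual [14C]-2-oxoglutarate. Baculovirus-expressed human PHD2 lysate (4 μg/well) reacted for 15 min at 37° C. Substrate-free and compound-free wells served as reference points for inhibition.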

[3] = test compound's concentration 1 μM, Test 2, fluorescence polarization assay
[4] = test compound's concentration 1 μM, Test 1, [14C]-2-oxoglutarate radiometric assay

Row | inhibition at 1 µM (human PHD2 [1]; [3]) [%] | inhibition at 1 µM (human PHD2 [2]; [4]) [%] | Structure (SMILES) | inhibition at 1 µM (human PHD2 [1]) [%] | inhibition at 1 µM (human PHD2 [2]) [%]
1 | 93 | 96 | O=C(O)CNC(=O)C1=C(O)CCN(Cc2ccc(-c3ccncc3)cc2)C1=O [Ex. 2-19] |  | 
2 | 93 | 102 | Cc1nc(C)c(-c2ccc(CN3CCC(O)=C(C(=O)NCC(=O)O)C3=O)cc2)s1 [Ex. 2-20] |  | 
3 | 93 | 88 | O=C(O)CNC(=O)C1=C(O)CCN(Cc2ccc(-c3ccc(C(F)(F)F)nc3)cc2)C1=O [Ex. 2-21] |  | 
4 | 94 | 95 | O=C(O)CNC(=O)C1=C(O)CCN(Cc2ccc(-c3cccc(Cl)c3)cc2)C1=O [Ex. 2-22] |  | 
5 | 96 | 88 | O=C(O)CNC(=O)C1=C(O)CCN(Cc2ccc(-c3ccc(Cl)c(Cl)c3)cc2)C1=O [Ex. 2-23] |  | 
6 | 93 | 91 | O=C(O)CNC(=O)C1=C(O)CCN(Cc2ccc(-c3ccc(C(F)(F)F)cc3)cc2)C1=O [Ex. 2-24] |  | 
7 | 96 | 92 | Cc1cccc(-c2ccc(CN3CCC(O)=C(C(=O)NCC(=O)O)C3=O)cc2)c1 [Ex. 2-25] |  | 
8 | 95 | 90 | COc1cccc(-c2ccc(CN3CCC(O)=C(C(=O)NCC(=O)O)C3=O)cc2)c1 [Ex. 2-26] |  | 
9 | 96 | 100 | O=C(O)CNC(=O)C1=C(O)CCN(Cc2ccc(-c3ccc4ncccc4c3)cc2)C1=O [Ex. 2-27] |  | 
10 | 97 | 90 | O=C(O)CNC(=O)C1=C(O)CCN(Cc2ccc(-c3ccc(F)cc3)cc2)C1=O [Ex. 2-28] |  | 
11 | 95 | 101 | O=C(O)CNC(=O)C1=C(O)CCN(Cc2ccc(-c3ccc(F)cc3)c(F)c2)C1=O [Ex. 2-29] |  | 
12 | 99 | 103 | O=C(O)CNC(=O)C1=C(O)CCN(Cc2ccc(-c3ccc(O)cc3)cc2)C1=O [Ex. 2-30] |  | 
13 |  |  | O=C(O)CNC(=O)C1=C(O)CCN(Cc2ccc(C3CCCC3)cc2)C1=O [Ex. 3-1, N-{[1-(4-Cyclopentylbenzyl)-4-hydroxy-2-oxo-1,2,5,6-tetrahydropyridin-3-yl]carbonyl}glycine sodium salt] | 95 | 102
14 |  |  | O=C(O)CNC(=O)C1=C(O)CCN(Cc2ccc(C3CC3)cc2)C1=O [Ex. 3-2, N-{[1-(4-Cyclopropylbenzyl)-4-hydroxy-2-oxo-1,2,5,6-tetrahydropyridin-3-yl]carbonyl}glycine sodium salt] | 90 | 87
15 | 67 | 58 | COc1ccc(CN2CCC(O)=C(C(=O)NCC(=O)O)C2=O)c(OC)c1 [Ex. 4-1, N-{[1-(2,4-Dimethoxybenzyl)-4-hydroxy-2-oxo-1,2,5,6-tetrahydropyridin-3-yl]carbonyl}glycine] |  | 
16 | 81 | 77 | C=CCOc1ccc(CN2CCC(O)=C(C(=O)NCC(=O)O)C2=O)cc1 [Ex. 4-2, N-({4-Hydroxy-2-oxo-1-[4-(prop-2-en-1-yloxy)benzyl]-1,2,5,6-tetrahydropyridin-3-yl}carbonyl)glycine] |  | 
